Measurements: paper PMC6270234, “Chemical Composition of Aspidosperma ulei Markgr. and Antiplasmodial Activity of Selected Indole Alkaloids” (Molecules, 2013)
Values joined by “and” are separate entries in the source; they are usually repeats but may differ in a detail not shown here. Equal entries are not always repeated. “Also recorded” adds a separate entry of the source. Where two headings read alike, the source gives them in different places.

Columns and labels:
[1] = tested on: multi-drug resistant K1 strain of Plasmodium falciparum; test: In vitro antiplasmodial assay, inhibition of growth of parasites by optical microscopy; type: cell-based; conditions: for IC50: Plasmodium falciparum, K1, 48 h, read-out: IC50 ± SD; for Result: activity class from IC50 in µM, K1 strain
Protocol: The in vitro antiplasmodial test was performed as previously described. […] Sample solutions were applied to the wells of 96-well test plates containing red blood cell suspension having initial parasitemia of 1.5%. […] After incubation, the contents of the wells were evaluated by optical microscopy. The inhibition of the growth of parasites (IGP%) was evaluated as a percentage by comparison with controls:
IGP% = 100 × [1 – (parasitemia with sample/parasitemia of untreated controls)]

[2] = tested on: NIH3T3 murine fibroblasts; test: Cytotoxicity test using the Alamar Blue assay; type: cell-based; conditions: Mus musculus, 48 h, tested at 50 µg/mL, read-out: IC50 (toxicity to fibroblasts)
Protocol: The NHI-3T3 cell line of mouse fibroblasts was grown in DMEN medium supplemented with 10% fetal bovine serum, 2 mM glutamine, 100 µg/mL streptomycin and 100 U/mL penicillin, and incubated at 37 °C with a 5% atmosphere of CO2. For assays, the cells were plated in 96-well plates (10^4 cells per well) and the Alamar Blue^TM assay was performed using previously described procedures. Briefly, after 24 h, the compounds were dissolved in DMSO and added to each well to give final concentrations of 50 µg/mL. Plates were incubated for 48 h. Control groups had final well concentrations of 0.1% DMSO. Two hours before the end of the incubations, 10 µL of Alamar Blue^TM was added to each well. The fluorescent signal was monitored with a multiplate reader using 530–560 nm excitation and 590 nm emission wavelengths.

[3] = tested on: chloroquine-resistant Fc M29-Cameroon strain of Plasmodium falciparum; design: method as in PMID 21612900; conditions: cited from earlier work
Plasmodium berghei = tested on: Plasmodium berghei; design: method as in PMID 23092722; conditions: Plasmodium berghei-infected mice, daily doses of 50-100 mg/kg/day, 4-day suppressive test; cited from earlier work
[4] = cited from earlier work
[5] = tested on: K1 strain of P. falciparum; design: method as in PMID 17568942, PMID 23092722; conditions: cited from earlier work
[6] = P. falciparum K1 strain, 48 h incubation

**Q.** What does the source list for `COC(=O)[C@@H]1[C@H]2Cc3c4[nH]c5ccccc5c4cc[n+]3C[C@@H]2CC[C@H]1O` [Compound 3, 3,4,5,6-tetradehydro-β-yohimbine]?
**A.** IC50 [1, 6]: 39.9 ± 7.7 µM; Result [1]: I (IC50 > 20.0 µM = inactive (I)); melting point: 260 to 264 °C; IC50 [2]: > 50 µg/mL

**Q.** What does the source list for `CC=C1C[N+]23CCC1CC21Nc2ccccc2C1(O)CC3` (stereo not shown) [Compound 4, 19E-hunteracine]?
**A.** IC50 [1, 6]: > 176 µM; Result [1]: I (IC50 > 20.0 µM = inactive (I)); melting point: 343 to 343.3 °C; IC50 [2]: > 50 µg/mL

**Q.** With `COC(=O)[C@@H]1[C@H]2CC3c4[nH]c5ccccc5c4CCN3C[C@@H]2CC[C@H]1O` (stereo partly drawn) [Compound 5, β-yohimbine] as the compound, how does the IC50 [3] read?
**A.** The IC50 was over 1 µg/mL.

**Q.** With `COC(=O)[C@@H]1[C@H]2C[C@H]3c4[nH]c5ccccc5c4CCN3C[C@@H]2CC[C@@H]1O` [Compound 6, yohimbine] as the compound, how does the IC50 [3] read?
**A.** Its IC50 is over 1 µg/mL.

**Q.** What does the source list for `Cc1nccc2c(C)c3[nH]c4ccccc4c3cc12` [Compound 8, olivacine]?
**A.** in vivo antimalarial activity (in words) (Plasmodium berghei): high in vivo antimalarial activity; cytotoxicity (in words) [4]: low cytotoxicity; in vitro antiplasmodial activity (in words) [5]: significant in vitro antiplasmodial activity

**Q.** Which results are given for `CCC1C2CCN(C)C1c1c([nH]c3ccccc13)C2=O` (stereo not drawn) [Compound 11, 20-epi-dasycarpidone]?
**A.** in vitro antiplasmodial activity (in words) ([1]; P. falciparum K1 strain): active; also recorded: moderate inhibitory activity; IC50 [1, 6]: 4.5 µg/mL and 16.7 µM; Result [1]: MA (IC50 5–20 µM = moderately active (MA)); melting point: 164.3 to 165.3 °C; IC50 [2]: > 50 µg/mL

**Q.** Which results are given for `C/C=C1\CN2CCc3c([nH]c4ccccc34)CC1CC2` (stereo not shown) [Compound 12, 20(E)-nor-subincanadine E]?
**A.** IC50 [1, 6]: 54.3 ± 10.5 µM; Result [1]: I (IC50 > 20.0 µM = inactive (I)); IC50 [2]: > 50 µg/mL

**Q.** With `CC(=O)N1c2c(O)cccc2C23CC[N+]4=C2C(CC(=O)O)(CCC4)CCC13` (stereo not shown) [Compound 13, 12-hydroxy-N-acetyl-21(N)-dehydroplumeran-18-oic acid] as the compound, how does the IC50 [1, 6] read?
**A.** Its IC50 is over 135 µM.

**Q.** And the Result [1]?
**A.** Its Result is “I (IC50 > 20.0 µM = inactive (I))”.

**Q.** And the IC50 [2]?
**A.** The IC50 was over 50 µg/mL.

**Q.** With `CC[C@@]12CCCN3CC[C@]4(c5ccc(OC)c(O)c5N(C(C)=O)[C@@H]4CC1)[C@H]32` [aspidocarpine] as the compound, how does the “in vitro antiplasmodial activity (in words)” value [5] read?
**A.** The value was “significant in vitro antiplasmodial activity”.

**Q.** With `CCN(CC)CCCC(C)Nc1ccnc2cc(Cl)ccc12` (stereo not shown) [chloroquine diphosphate, reference compound] as the compound, how does the IC50 [1] read?
**A.** The IC50 was 0.17 µg/mL and 330 nM.

**Q.** What about the Result [1] of the same compound?
**A.** The Result was “A (0.1 < IC50 < 5 µM = active (A))”.

**Q.** For `Cc1c2ccncc2c(C)c2c1[nH]c1ccccc12` [ellipticine, reference compound], which “in vivo antimalarial activity (in words)” value (Plasmodium berghei) is on record?
**A.** Its value is “high in vivo antimalarial activity”.

**Q.** And the “cytotoxicity (in words)” value [4]?
**A.** Its value is “low cytotoxicity”.

**Q.** What about the “in vitro antiplasmodial activity (in words)” value [5] of the same compound?
**A.** Its value is “significant in vitro antiplasmodial activity”.

**Q.** With `C=C[C@H]1C[N@@]2CC[C@H]1C[C@H]2[C@H](O)c1ccnc2ccc(OC)cc12` [quinine sulphate, reference compound] as the compound, how does the IC50 [1, 6] read?
**A.** The IC50 was 0.12 µg/mL and 300 nM.
